Results taken from article PMC12794055, “High-Throughput Cardiac Hypertrophy Phenotyping Supports Lead Optimization of GRK5 Inhibitors” (ACS Medicinal Chemistry Letters, 2025).
“Also recorded” adds a separate entry of the source. Blank lines part the entries; values can stand above or below the compound they belong to. Where no end group is shown, it is not given here.

Experiments:
mixed cardiac cells [1] = assay: High-content hypertrophy assay (Hypertrophy Score), PE-LIF-stimulated mixed cardiac cells treated with inhibitors; details: 96 h; for antihypertrophic effect (Hypertrophy Score), in words: comparison at 8 μM
[2] = test system: mixed cardiac cells (CMs and non-CMs); details: for toxicity, in words: nuclei counts of CMs and non-CMs
GRK2 = details: read-out: GRK2 IC50; biochemical IC50, radiometric kinase inhibition assay; ref 40 (citation marks lost in text); cited from earlier work
purified CMs [3] = assay: qPCR of hypertrophic gene expression (Nppa, Nppb) in purified CMs; format: cell-based, rat; details: 100 µM PE + 50 ng/ml LIF, 24 h
mixed cardiac cells [4] = assay: Profiling of hypertrophic stimulants in mixed cardiac cell culture (Hypertrophy Score); details: stimulants at three concentrations
purified CMs [5] = assay: Profiling of hypertrophic stimulants in purified CM culture (Hypertrophy Score)

Compound: Cc1[nH]c(/C=C2\C(=O)Nc3ccc(C(=O)N[C@H](C)c4ccc(F)cc4)cc32)c(C)c1NC(=O)C1CCOCC1 [Compound 5i]
antihypertrophic effect (Hypertrophy Score), in words (mixed cardiac cells [1]; PE-LIF (20 μM, 50 ng/mL)): partially reduced the Hypertrophy Score

concentration at which CMs are affected ([2]; CM nuclei counts, 96 h): ≥ 2000 nM
concentration from which non-CM numbers are reduced ([2]; non-CM nuclei counts, 96 h): ≥ 500 nM
Compound: Cc1nc(C(=O)Nc2c(C)[nH]c(/C=C3\C(=O)Nc4ccc(C(=O)N[C@H](C)c5ccc(F)cc5)cc43)c2C)c(C)s1 [Compound 5d]
antihypertrophic effect (Hypertrophy Score), in words (mixed cardiac cells [1]; PE-LIF (20 μM, 50 ng/mL)): appeared to reduce hypertrophy
toxicity, in words [2]: excluded due to toxicity

Compound: Cc1[nH]c(/C=C2\C(=O)Nc3ccc(C(=O)N[C@H](C)c4ccc(F)cc4)cc32)c(C)c1NC(=O)[C@H]1CCC(=O)O1 [Compound 5k]
antihypertrophic effect (Hypertrophy Score), in words (mixed cardiac cells [1]; PE-LIF (20 μM, 50 ng/mL)): nor significant antihypertrophic effects; also recorded: lacked cellular efficacy
toxicity, in words [2]: neither toxicity

Compound: Cc1[nH]c(/C=C2\C(=O)Nc3ccc(C(=O)N[C@H](C)c4ccc(F)cc4)cc32)c(C)c1NC(=O)C(=O)c1ccco1 [Compound 3]
antihypertrophic effect (Hypertrophy Score), in words (mixed cardiac cells [1]; PE-LIF (20 μM, 50 ng/mL)): partially reduced the Hypertrophy Score; also recorded: surprisingly poor cellular efficacy
reduction in non-CM numbers (antiproliferative activity), in words ([2]; non-CM nuclei counts, 96 h): most pronounced

Compound: Cc1[nH]c(/C=C2\C(=O)Nc3ccc(C(=O)N[C@H](C)c4ccc(F)cc4)cc32)c(C)c1NC(=O)[C@@H](O)c1ccco1 [Compound 4a]
concentration from which PE-LIF-induced Hypertrophy Score is significantly reduced (mixed cardiac cells [1]; PE-LIF (20 μM, 50 ng/mL)): ≥ 3 µM
antihypertrophic effect (Hypertrophy Score), in words (mixed cardiac cells [1]; PE-LIF (20 μM, 50 ng/mL)): most potent cellular inhibitor; also recorded: clear cellular effects
IC50 (mixed cardiac cells [1]; Rattus norvegicus, read-out: cellular IC50 (antihypertrophic effects)): 4.7 µM
PE-LIF-induced upregulation of Nppa and Nppb, in words (purified CMs [3]): prevented PE-LIF-induced upregulation of Nppa and Nppb

Compound: Cc1[nH]c(/C=C2\C(=O)Nc3ccc(C(=O)N[C@H](C)c4ccc(F)cc4)cc32)c(C)c1NC(=O)c1ccoc1 [Compound 5b]
antihypertrophic effect (Hypertrophy Score), in words (mixed cardiac cells [1]; PE-LIF (20 μM, 50 ng/mL)): nor significant antihypertrophic effects; also recorded: surprisingly poor cellular efficacy
toxicity, in words [2]: neither toxicity

Compound: leukemia inhibitory factor [LIF]
hypertrophic response (Hypertrophy Score), in words (mixed cardiac cells [4]): little to no effect
hypertrophic response (Hypertrophy Score), in words (purified CMs [5]): significantly increased the Hypertrophy Score

Compound: NC[C@H](O)c1ccc(O)c(O)c1 [NE, norepinephrine]
hypertrophic response (Hypertrophy Score), in words (mixed cardiac cells [4]): weaker response than PE alone

Compound: Cc1nc2c(C(=O)Nc3c(C)[nH]c(/C=C4\C(=O)Nc5ccc(C(=O)N[C@H](C)c6ccc(F)cc6)cc54)c3C)cccc2[nH]1 [Compound 5m]
antihypertrophic effect (Hypertrophy Score), in words (mixed cardiac cells [1]; PE-LIF (20 μM, 50 ng/mL)): partially reduced the Hypertrophy Score

Compound: Cc1[nH]c(/C=C2\C(=O)Nc3ccc(C(=O)N[C@H](C)c4ccc(F)cc4)cc32)c(C)c1NC(=O)[C@H](O)c1ccco1 [Compound 4b]
antihypertrophic effect (Hypertrophy Score), in words (mixed cardiac cells [1]; PE-LIF (20 μM, 50 ng/mL)): no effect at any concentration; also recorded: lacked cellular efficacy; also recorded: no antihypertrophic efficacy
reduction in non-CM numbers (antiproliferative activity), in words ([2]; non-CM nuclei counts, 96 h): absent

Compound: transforming growth factor beta [TGFβ]
hypertrophic response (Hypertrophy Score), in words (mixed cardiac cells [4]): little to no effect

Compound: CNC[C@H](O)c1cccc(O)c1 [PE, phenylephrine]
hypertrophic response (Hypertrophy Score), in words (mixed cardiac cells [4]): strongest response

Compound: endothelin-1 (CSCSSLMDKECVYFCHLDIIW; not fully specified (bridges); ends and bridges not checked; UniProt P05305 53-73, looked up) [ET-1]
hypertrophic response (Hypertrophy Score), in words (mixed cardiac cells [4]): robust hypertrophic effects
